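Method: 48-hour compound exposure of cells in 96-well plates, five concentrations, linear interpolation of endpoints. TGI denotes the concentration required for complete inhibition of growth.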 Where a SMILES comes first, the peptide text is derived from it. The star is where a group is joined. OSu = O=C1CCC(=O)N1O*
Key:
Assay in all cases: NCI-60 cell line screen, 48 h
EKVX NSCLC = system: EKVX NSCLC
NCI/ADR-RES ovarian = system: NCI/ADR-RES ovarian
SF-268 CNS = system: SF-268 CNS
SF-295 CNS = system: SF-295 CNS
SF-539 CNS = system: SF-539 CNS
SK-MEL-28 melanoma = system: SK-MEL-28 melanoma
SK-OV-3 ovarian = system: SK-OV-3 ovarian
SW-620 colon = system: SW-620 colon
TK-10 renal = system: TK-10 renal
U251 CNS = system: U251 CNS

Structure (SMILES)	TGI (EKVX NSCLC)	TGI (NCI/ADR-RES ovarian)	TGI (SF-268 CNS)	TGI (SF-295 CNS)	TGI (SF-539 CNS)	TGI (SK-MEL-28 melanoma)	TGI (SK-OV-3 ovarian)	TGI (SW-620 colon)	TGI (TK-10 renal)	TGI (U251 CNS)
CCOC1CCN(C(=O)c2ccccc2)O1 (stereo unspecified)	> 10 µM	> 10 µM	> 10 µM	> 10 µM	> 10 µM	> 10 µM	> 10 µM	> 10 µM	> 10 µM	–
OC12c3ccccc3C1CCCCCC21OCCCO1 (stereo unspecified)	–	–	> 100 µM	> 100 µM	> 100 µM	> 100 µM	> 100 µM	> 100 µM	> 100 µM	> 100 µM
CC(=O)c1c(O)n(-c2ccc(C)cc2)c(=O)c2c(N)n[nH]c12	> 100 µM	> 100 µM	> 100 µM	–	> 100 µM	> 100 µM	> 100 µM	> 100 µM	> 100 µM	> 100 µM
COc1cc(OC)c(OC)cc1/C=C/c1cc[n+](C)c2ccccc12	> 100 µM	> 100 µM	> 100 µM	> 100 µM	–	> 100 µM	> 100 µM	> 100 µM	> 100 µM	> 100 µM
O=c1[nH]nc(-c2ccc(F)cc2)cc1-c1ccccc1	> 100 µM	> 100 µM	> 100 µM	> 100 µM	> 100 µM	> 100 µM	> 100 µM	> 100 µM	> 100 µM	> 100 µM
CC(CC[C@@]1(O)OC2C[C@H]3[C@@H]4CC[C@H]5CC(OC6OC(CO)C(OC7OC(CO)C(O)C(OC8OCC(O)C(O)C8O)C7OC7OC(CO)C(O)C(O)C7O)C(O)C6O)[C@H](O)CC5(C)[C@H]4CCC3(C)C2[C@@H]1C)COC1OC(CO)C(O)C(O)C1O (stereo partly specified)	8.9 µM	31.1 µM	9.32 µM	45.2 µM	10.7 µM	> 50 µM	43.3 µM	> 50 µM	16.6 µM	> 50 µM
NCCCCC(NC(=O)C(N)Cc1ccc(O)cc1)C(=O)NC(Cc1ccc(O)cc1)C(=O)NC(CCCCN)C(=O)ON1C(=O)CCC1=O (stereo unspecified) (H-YKYK-OSu; configuration not given here)	> 100 µM	–	–	–	–	> 100 µM	–	> 100 µM	> 100 µM	> 100 µM
CCC(=O)Nc1ccc(NCC(=O)Nc2ccc(OC)cc2)cc1	70.7 µM	85.7 µM	39.7 µM	> 100 µM	38.6 µM	> 100 µM	95.3 µM	> 100 µM	–	–
C=CCCC(=O)C(=[N+]=[N-])C(=O)CCC(=O)c1ccccc1	> 10 µM	–	> 10 µM	> 10 µM	> 10 µM	> 10 µM	> 10 µM	> 10 µM	> 10 µM	> 10 µM
C=CCn1c(=N)/c(=C(\N)O)s/c1=C1/SC(=S)N(c2ccc(C)cc2)C1=O	–	–	> 100 µM	> 100 µM	> 100 µM	> 100 µM	> 100 µM	> 100 µM	> 100 µM	> 100 µM
COc1cc2c(c(OC)c1OC)-c1ccc(SC)c(=O)cc1C(CC(=O)Oc1cccc(F)c1)C2 (stereo unspecified)	> 100 µM	–	> 72.5 µM	> 100 µM	0.387 µM	> 100 µM	16.1 µM	> 100 µM	> 100 µM	0.85 µM
CCn1c(CSc2nc(-c3ccccc3)c(-c3ccccc3)[nH]2)n[nH]c1=S	> 100 µM	–	> 100 µM	> 100 µM	> 100 µM	> 100 µM	> 100 µM	–	> 100 µM	> 100 µM
COc1cc(C2c3cc4c(cc3[C@@H](N(C)c3ccc(N(C)C)cc3)C3COC(=O)C23)OCO4)cc(OC)c1O (stereo partly specified)	44.2 µM	–	6.85 µM	0.325 µM	0.638 µM	27.3 µM	43 µM	21.8 µM	33.1 µM	1.45 µM
COC(=O)C1(O)C(c2ccccc2)NC2(C)CCCC21 (stereo unspecified)	–	> 100 µM	> 100 µM	> 100 µM	> 100 µM	> 100 µM	> 100 µM	> 100 µM	> 100 µM	> 100 µM
CNC(=S)/C(C#N)=C(\N)N1CCCC1	> 100 µM	> 100 µM	> 100 µM	–	> 100 µM	> 100 µM	> 100 µM	> 100 µM	> 100 µM	> 100 µM
Cc1ccc(C2C(Cl)C(=O)N2NC(=O)c2ccc(N)cc2)cc1 (stereo unspecified)	49.7 µM	–	–	47.8 µM	41.6 µM	26 µM	37.4 µM	41.3 µM	> 100 µM	28.3 µM
CC12CCC(CC1(Cl)Cl)C2 (stereo unspecified)	> 100 µM	> 100 µM	> 100 µM	> 100 µM	–	> 100 µM	> 100 µM	> 100 µM	> 100 µM	> 100 µM
O=C1C(Cl)=C(NCCF)C(=O)c2ncccc21	3.08 µM	–	4.22 µM	3.21 µM	3.23 µM	3.41 µM	3.74 µM	3.35 µM	3.65 µM	2.8 µM
CCOC(=O)c1nc2cc(C(F)(F)F)ccc2nc1Oc1ccc(F)cc1	> 100 µM	> 100 µM	> 100 µM	> 100 µM	> 100 µM	> 100 µM	–	> 100 µM	> 100 µM	> 100 µM
CC[n+]1c(/C=C/c2ccc(N(CCCl)CCCl)cc2)ccc2cc(I)ccc21	12 µM	–	–	5.76 µM	2.4 µM	–	6.42 µM	6.96 µM	9.04 µM	–
CC(=O)NC1C(OCc2ccccc2)OC(CO)C(O)C1OCC(=O)N[C@@H](C)C(=O)N[C@H](CCC(=O)NCCNc1ccc([N+](=O)[O-])c2[nH]c3ccccc3c(=O)c12)C(N)=O (stereo partly specified)	60.5 µM	59.7 µM	–	> 100 µM	> 100 µM	> 100 µM	> 100 µM	> 100 µM	42.3 µM	> 100 µM
C#CC(O)/C=C/C(O)CCCC(O)CC#CC(O)C#CCCCCC(O)/C=C/CCCC(O)/C=C/CCCCCCCCCCCCCC(O)C(O)C#CC(=O)O (stereo unspecified)	> 25 µM	> 25 µM	> 25 µM	> 25 µM	–	> 25 µM	> 25 µM	–	> 25 µM	> 25 µM
C#C[C@]1(O)CC[C@H]2[C@@H]3CCC4=C/C(=N/OC(=O)c5cccc6c(=O)c7ccccc7[nH]c56)CCC4[C@H]3CC[C@@]21CC (stereo partly specified)	> 100 µM	> 100 µM	> 100 µM	> 100 µM	–	> 100 µM	> 100 µM	> 63.5 µM	> 100 µM	> 100 µM

— PubChem BioAssay (NCI)
